Data reported in patent US7915022B2, “Carbonyl reductase, gene thereof and method of using the same” (priority 2004, dated 2011).

Columns and labels:
[1] = system: polypeptide consisting of the amino acid sequence shown in SEQ ID NO: 4 (carbonyl reductase), cell-free extract of E. coli HB101 (pNTOM4); test: Substrate specificity of polypeptide produced by transformant E. coli HB101 (pNTOM4); assay type: biochemical, Ogataea minuta var. minuta NBRC0975; settings: 1 mM substrate, 0.25 mM NADPH, pH 6.5, 30° C., 1 min; relative to activity on CBPB as 100%
Method: (§1) In 100 mM phosphate buffer (pH 6.5) containing 0.33% (v/v) dimethyl sulfoxide were dissolved a carbonyl compound to be a substrate to a final concentration of 1 mM, and a coenzyme NADPH to a final concentration of 0.25 mM, respectively. Thereto was added a cell-free extract of E. coli HB101 (pNTOM4) or E. coli HB101 (pNTOM3) prepared in Example 7, and the mixture was reacted at 30° C. for 1 min. The reduction activity on each carbonyl compound was calculated from the rate of decrease in the absorbance of the reaction mixture at a wavelength of 340 nm, and shown in Table 2 as a value relative to the activity on (3S)-1-chloro-3-tert-butoxycarbonylamino-4-phenyl-2-butanone as 100%.

[2] = system: polypeptide consisting of the amino acid sequence shown in SEQ ID NO: 3 (carbonyl reductase), cell-free extract of E. coli HB101 (pNTOM3); test: Substrate specificity of polypeptide produced by transformant E. coli HB101 (pNTOM3); assay type: biochemical, Ogataea minuta var. minuta NBRC0975; settings: 1 mM substrate, 0.25 mM NADPH, pH 6.5, 30° C., 1 min; relative to activity on CBPB as 100%
Method: as §1

SMILES	relative activity (%) E. coli HB101 (pNTOM4) [1]	relative activity (%) E. coli HB101 (pNTOM3) [2]
CCC(=O)c1ccccc1 [propiophenone]	2%	183%
CC(C)=O [acetone]	0%	47%
